Assay results published in patent publication US20220160680A1, “MICROORGANISM MIXTURES, MOLECULES DERIVED THEREFROM, AND METHODS OF USE THEREOF” (B. G. Negev Technologies and Applications Ltd., at …, priority 2018, published 2022).
“Also recorded” adds a separate entry of the source.

Legend:
[1] = test system: V. cholerae VC1 (WT) and MM920; experiment: V. cholerae biofilm modulation (CLSM, crystal violet); type: cell-based, Vibrio cholerae; details: 900 nM CAI-1
Method: The various pathogenic indicator strains used in this study were V. cholerae strain MM920 (ACqsA AluxQ), Vibrio harveyi strain MM30 (LuxS, Tn5). To initiate biofilm formation, bacteria was grown in the absence of the V. cholerae autoinducer 1 (CAI1). In addition, the bacteria were grown in presence of: 900 nM CAI1 (Vibrio Cholerae MM920), 900 nM CAI1, 200 μM Tryptophol acetate and 200 μM Tyrosol acetate, and 200 μM Tryptophol acetate and 200 μM Tyrosol acetate.
Biofilms were grown under shaking conditions at 30° C. in 96-well plate (Thermo Scientific, Rochester, N.Y., USA). […] The stained cells were washed twice with PBS. Biofilm images were taken by CLSM (Plan-Apochromat 20×/0.8 M27, Zeiss LSM880, Germany).
For static biofilm assay, overnight cultures of V. cholerae strain MM920 was diluted 1:10 in fresh LB medium containing a final concentration of 100 μM from each Tryptophol acetate and Tyrosol acetate or DMSO (up to 1%) as control. […] One in absence of the V. cholerae autoinducer (CAI-1) and the other one in presence of 900 nM CAI-1. Biofilms were grown under non-shaking conditions at 37° C. in 96-well plate (Thermo Scientific, Rochester, N.Y., USA). […] The stained cells were washed twice with PBS. Biofilm images were taken by CLSM (Plan-Apochromat 20×/0.8 M27, Zeiss LSM880, Germany).
Biofilm matrixes of V. cholerae VC1 WT (FIGS. 23Ai and 23Aii), and the V. cholerae MM920 mutant (FIGS. 23Aiii and 23Aiv) were grown for 24 hours with or without tryptophol acetate in the growth medium, and stained using the BacLight® Dead/Live Kit to distinguish viable cells.

Peritoneal macrophages = experiment: In vitro LPS stimulation of peritoneal macrophages, cytokine ELISA (24 hr); type: cell-based, mice; details: 100 μM, 0.1 μg/ml LPS
Method: Peritoneal macrophages were harvested using the protocol as described previously (Zhang et al., 2008). Elicited macrophages were harvested from WT mice which had received a 2.5 ml intraperitoneal administration of 3% Brewer thioglycolate broth (Sigma, UK) 72 hr prior collection.
Peritoneal macrophages cells (5×10^5/ml) were cultured with 0.1 μg/ml Lipopolysaccharides (LPS-Escherichia coli serotype 0127:B8, Sigma-Aldrich) and in the presence of 100 μM: tryptophol acetate, tyrosol acetate, dopamine HCl, caffeic acid, or combination of tryptophol acetate and tyrosol acetate, for 24 hr. Following culture, supernatants were collected and stored at −20° C. for the detection of the IL-6 cytokine. For IL-la detection, the inventors induced macrophages lysis by adding fresh RPMI medium and thawing three times.
IL-la and IL-6 levels were measured in peritoneal exudate fluids and LPS-stimulated culture supernatants by ELISA. To detect the cytokines, a R&D ELISA kit (Catalog #MLA00 and DY406, respectively) was used as per the manufacturer's instructions. A standard curve was constructed using serial dilutions of purified IL-la or IL-6 starting at a concentration of 15 ng/ml.

CCCCCCCCCC(=O)[C@@H](O)CC [CAI-1, reference compound]
Biofilm of V. cholerae MM920, autoinducer alone [1]: disruption of biofilm integrity

O=C(O)/C=C/c1ccc(O)c(O)c1 [caffeic acid]
Production of IL-6 (Peritoneal macrophages): comparable results; also recorded: dramatically reduced
